Where two headings read alike, the source gives them in different places.
Assays:
human FAP-α = human FAP-α (Homo sapiens (Human), UniProt Q12884); test: Competitive binding of radiolabeled compound to HT-1080-FAP cells against unlabeled compound
Method: Competition experiments were performed by simultaneous exposure to unlabeled (10^−5 M to 10^−9M) and radiolabeled compound for 60 min. […] For internalization experiments, surface bound activity was removed by incubating the cells with 1 M glycine-HCl buffer for 10 min. The radioactivity was measured using a γ-counter, normalized to 1 mio cells and calculated as percentage of applied dose (% ID).
The medium was replaced by 1 mL fresh medium without fetal calf serum. […] Competition experiments were performed by simultaneous exposure to unlabeled (10^−5 M to 10^−9 M) and radiolabeled compound for 60 min. […] In all experiments, the cells were washed with 1 mL phosphate-buffered saline pH 7.4 for 2 times and subsequently lysed with 1.4 ml lysis buffer (0.3 M NaOH, 0.2% SDS). Radioactivity was determined in a γ-counter (Cobra II, Packard), normalized to 1 mio cells and calculated as percentage of the applied dose (% ID). Each experiment was performed 3 times, and 3 repetitions per independent experiment were acquired.

[1] = Blood pool clearance from SUVmean of the heart; format: in vivo
Text: The calculated plateau values, which were higher for Ga-68 labeled FAPI-13, -21, -36 and AlF-18 labeled FAPI-74 theoretically correspond to a higher fraction of compound which is not cleared due to unspecific binding or by remaining in circulating (Table 12).

[2] = tested on: HT-1080-FAP tumor xenografts; test: Small-animal imaging (PET, scintigraphy) in HT-1080-FAP tumor bearing mice; format: in vivo, mouse; details: for PET imaging findings: F-18 labeled (nicotinamide or AlF-18 NOTA), up to 140 min after i.v.; for tumor uptake in vivo: Tc-99m labeled, scintigraphy
Method: For in vivo experiments, 8 week old BALB/c nu/nu mice (Charles River) were subcutaneously inoculated into the right trunk with 5×10^6 with HT-1080-FAP, Capan-2 or SK-LMS-1 cells, respectively. When the size of the tumor reached approximately 1 cm^3, the radiolabeled compound was injected via the tail vein (˜10 MBq for small-animal PET imaging; ˜1 MBq for organ distribution). […] Images were reconstructed iteratively using the 3D-OSEM+MAP method and were converted to standardized uptake value (SUV) images. Quantification was done using a ROI technique and expressed as SUV mean. For organ distribution of Lu-177 labeled compound ([…]), the animals (n=3 for each time point) were sacrificed after indicated time points (from 30 min to 24 h). The distributed radioactivity was measured in all dissected organs and in blood using a γ-counter (Cobra Autogamma, Packard). The values are expressed as percentage of injected dose per gram of tissue (% ID/g).

human CD26 = human CD26 (Homo sapiens (Human), UniProt P27487); test: Radioligand binding to CD26 expressing cells (HEK-CD26); details: 60 min incubation
Method: (§1) In vitro binding studies were performed using the human tumor cell lines BxPC3, Capan-2, MCF-7 (purchased from Sigma Aldrich Chemie GmbH) and SK-LMS-1 (purchased from ATCC) as well as stably transfected FAP-cell lines HT-1080-FAP, HEK-muFAP and the CD26 expressing cell line HEK-CD26 (obtained from Stefan Bauer, NCT Heidelberg). All cells were cultivated in Dulbecco's modified Eagle's medium (DMEM) containing 10% fetal calf serum at 37° C./5% carbon dioxide. For fluorescence internalization experiments, cells were seeded on coverslips and stained with FAPI-02-Atto488 and DAPI for cell nucleus staining. Images were acquired on a laser scanning confocal microscope using a 63× oil immersion objective.
(§2) For radioligand binding studies, cells were seeded in 6-well plates and cultivated for 48 h to a final confluence of approx. 80-90% (1.2-2 mio cells/well). The medium was replaced by 1 mL fresh medium without fetal calf serum. The radiolabeled compound was added to the cell culture and incubated for different time intervals ranging from 10 min to 24 h. Competition experiments were performed by simultaneous exposure to unlabeled (10^−5 M to 10^−9 M) and radiolabeled compound for 60 min. […] Radioactivity was determined in a γ-counter (Cobra II, Packard), normalized to 1 mio cells and calculated as percentage of the applied dose (% ID). […]

HT-1080-FAP cells [3] = test: Radioligand binding and internalization in HT-1080-FAP cells; format: cell-based, human
Method: (§3) Radioligand binding studies were performed using HT-1080-FAP cells. The radiolabeled compound was added to the cell culture and incubated for different time intervals ranging from 10 min to 24 h. Competition experiments were performed by simultaneous exposure to unlabeled (10^−5 M to 10^−9M) and radiolabeled compound for 60 min. For efflux experiments, radioactive medium was removed after incubation for 60 min and replaced by non-radioactive medium for time intervals ranging from 1 to 24 h. For internalization experiments, surface bound activity was removed by incubating the cells with 1 M glycine-HCl buffer for 10 min. The radioactivity was measured using a γ-counter, normalized to 1 mio cells and calculated as percentage of applied dose (% ID).
(§4) For radioligand binding studies, cells were seeded in 6-well plates and cultivated for 48 h to a final confluence of approx. 80-90% (1.2-2 mio cells/well). The medium was replaced by 1 mL fresh medium without fetal calf serum. The radiolabeled compound was added to the cell culture and incubated for different time intervals ranging from 10 min to 24 h. Competition experiments were performed by simultaneous exposure to unlabeled (10^−5 M to 10^−9 M) and radiolabeled compound for 60 min. For efflux experiments, radioactive medium was removed after incubation for 60 min and replaced by non-radioactive medium for time intervals ranging from 1 to 24 h. In all experiments, the cells were washed with 1 mL phosphate-buffered saline pH 7.4 for 2 times and subsequently lysed with 1.4 ml lysis buffer (0.3 M NaOH, 0.2% SDS). Radioactivity was determined in a γ-counter (Cobra II, Packard), normalized to 1 mio cells and calculated as percentage of the applied dose (% ID). Each experiment was performed 3 times, and 3 repetitions per independent experiment were acquired.
For internalization experiments the cells were incubated with the radiolabeled compound for 60 min at 37° C. and 4° C. Cellular uptake was terminated by removing medium from the cells and washing 2 times with 1 mL PBS. Subsequently, cells were incubated with 1 mL of glycine-HCl (1 Min PBS, pH 2.2) for 10 min at room temperature to remove the surface bound activity. The cells were washed with 2 mL of ice-cold PBS and lysed with 1.4 mL of lysis buffer to determine the internalized fraction. For the cells incubated at 4° C., all washing and elution steps were carried out using ice-cold buffers. The radioactivity was measured using a γ-counter, normalized to 1 mio cells and calculated as percentage of applied dose (% ID).

[4] = tested on: FAP-negative cancer cell lines; test: Radioligand binding to FAP-negative human cancer cell lines; format: cell-based; details: I-125 labeled, 60 min
Method: as §1, §2

HT-1080-FAP cells [5] = test: Efflux experiments in HT-1080-FAP cells; format: cell-based, human
Method: as §3, §4

HEK-CD26 cells = test: Fluorescence laser scanning microscopy of internalization, FAP-α negative cells; format: cell-based; details: fluorescently labeled, 1 to 2 hrs
Method: as §1
(§5) For internalization experiments HT-1080-FAP and HEK muFAP cells were seeded on uncoated coverslips in a 24-well plate and cultivated in culture medium containing 10% fetal calf serum to a final confluence of approx. 80-90%. The medium was removed and cells were washed with 0.5 mL PBS pH 7.4 for 2 times. FAPI-02-Atto488 (20 μM in DMEM) was added to the cells and incubated for 2 hrs at 37° C. Cells were washed with 0.5 mL PBS pH 7.4 for 3 times and fixed with paraformaldehyde (2% in PBS) for 15 min. The overgrown coverslips were placed on microscope slides using mounting medium containing DAPI for cell nucleus staining (Fluoroshield, Sigma-Aldrich). […]

[6] = tested on: HT-1080-FAP and HEK-muFAP cells; test: Fluorescence laser scanning microscopy of internalization, FAP-α expressing cells; format: cell-based; details: fluorescently labeled, 1 to 2 hrs
Method: as §1, §5

[7] = tested on: HT-1080-FAP tumor xenografts; test: Organ distribution ex vivo in HT-1080-FAP tumor bearing nude mice; parameters: species or system mouse; details: AlF-18-labeled, i.v.
[8] = F-18-FAPI derivatives, table title says EC50, head says IC50, read-out: IC50
[9] = I-125 labeled, 10 min incubation
[10] = after 24 h in compound-free medium

Chain of human FAP-α (Q12884 whole entry): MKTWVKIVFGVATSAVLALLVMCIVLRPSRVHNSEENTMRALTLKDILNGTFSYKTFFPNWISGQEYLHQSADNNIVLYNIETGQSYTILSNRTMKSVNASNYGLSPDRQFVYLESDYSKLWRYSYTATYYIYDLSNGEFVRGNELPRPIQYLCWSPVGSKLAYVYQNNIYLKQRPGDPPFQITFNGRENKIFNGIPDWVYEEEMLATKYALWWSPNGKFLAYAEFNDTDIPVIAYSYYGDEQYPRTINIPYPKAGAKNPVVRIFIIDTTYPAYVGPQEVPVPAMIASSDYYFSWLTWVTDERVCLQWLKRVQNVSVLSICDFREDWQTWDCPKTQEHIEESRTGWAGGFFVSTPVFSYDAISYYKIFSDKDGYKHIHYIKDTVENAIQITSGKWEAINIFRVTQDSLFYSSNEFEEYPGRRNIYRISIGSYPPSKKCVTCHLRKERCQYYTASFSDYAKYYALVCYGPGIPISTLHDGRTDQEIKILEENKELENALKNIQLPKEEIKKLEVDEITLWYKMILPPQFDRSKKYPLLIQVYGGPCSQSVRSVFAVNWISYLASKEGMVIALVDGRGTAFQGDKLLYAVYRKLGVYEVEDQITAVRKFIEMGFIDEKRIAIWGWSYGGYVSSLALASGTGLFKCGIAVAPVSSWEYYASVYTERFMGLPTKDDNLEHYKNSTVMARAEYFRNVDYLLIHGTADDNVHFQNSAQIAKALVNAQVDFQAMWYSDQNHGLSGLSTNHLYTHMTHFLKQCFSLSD
Chain of human CD26 (P27487 whole entry): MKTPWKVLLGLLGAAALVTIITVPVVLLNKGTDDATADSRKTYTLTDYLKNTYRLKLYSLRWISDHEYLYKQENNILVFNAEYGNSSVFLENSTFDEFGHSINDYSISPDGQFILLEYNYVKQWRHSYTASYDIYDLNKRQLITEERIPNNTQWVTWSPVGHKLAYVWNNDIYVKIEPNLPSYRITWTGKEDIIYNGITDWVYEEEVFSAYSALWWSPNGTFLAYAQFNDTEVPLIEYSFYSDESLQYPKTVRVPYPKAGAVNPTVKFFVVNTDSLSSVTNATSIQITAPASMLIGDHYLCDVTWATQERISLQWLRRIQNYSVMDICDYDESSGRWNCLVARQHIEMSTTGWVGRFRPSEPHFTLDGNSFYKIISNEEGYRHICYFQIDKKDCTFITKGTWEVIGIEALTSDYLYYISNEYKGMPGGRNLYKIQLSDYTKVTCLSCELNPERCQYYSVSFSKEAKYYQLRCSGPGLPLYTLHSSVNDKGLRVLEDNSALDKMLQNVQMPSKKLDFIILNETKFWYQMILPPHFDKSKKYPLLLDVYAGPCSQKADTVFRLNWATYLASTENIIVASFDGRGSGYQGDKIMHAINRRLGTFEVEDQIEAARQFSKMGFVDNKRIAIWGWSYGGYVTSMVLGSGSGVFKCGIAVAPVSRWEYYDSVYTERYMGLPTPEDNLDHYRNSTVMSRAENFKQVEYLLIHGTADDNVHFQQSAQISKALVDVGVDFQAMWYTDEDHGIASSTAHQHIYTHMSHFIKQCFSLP

Q: Which results are given for `N#C[C@@H]1CCCN1C(=O)CNC(=O)c1ccnc2ccc(OCCCN3CCN(C(=O)CN4CCN(CC(=O)O)CCN(CC(=O)O)CC4)CC3)cc12` [FAPI-74]?
A: IC50 (human FAP-α; [8]): 9.2 nM; Plateau value (SUVmean) ([1]; hypothetical plateau, two phase exponential decay of heart SUVmean): 0.32; Blood pool-clearence (T1/2 [min]) ([1]; rate determining half-life, two phase exponential decay of heart SUVmean 0.375-60 min): 2.4 min; PET imaging findings [2]: high target specificity and fast clearance

Q: Which results are given for `N#C[C@@H]1CC(F)(F)CN1C(=O)CNC(=O)c1ccnc2ccc(OCCCN3CCN(C(=O)CN(Cc4nccn4CC(=O)O)Cc4nccn4CC(=O)O)CC3)cc12` [FAPI-19]?
A: IC50 (human FAP-α; Tc-99m labeled, HT-1080-FAP cells, read-out: IC50): 6.4 nM; tumor uptake in vivo [2]: insufficient tumor uptake

Q: With `N#C[C@@H]1CC(F)(F)CN1C(=O)CNC(=O)c1ccnc2ccc(OCCCN3CCN(C(=O)CN(Cc4nccn4CC(=O)N[C@@H](CC(C(=O)O)C(=O)O)C(=O)O)Cc4nccn4CC(=O)N[C@@H](CC(C(=O)O)C(=O)O)C(=O)O)CC3)cc12` [FAPI-34] as the compound, how does the “tumor uptake in vivo” value [2] read?
A: continuously enriched within the tumor

Q: With `N#C[C@@H]1CCCN1C(=O)CNC(=O)c1ccnc2cccc(I)c12` [FAPI-01] as the compound, how does the “binding to CD26 expressing cells (% ID)” value (human CD26) read?
A: 0.05±0.01%

Q: And the IC50 (human FAP-α; radiolabeled FAPI-01 (I-125) / FAPI-02 (Lu-177), HT-1080-FAP cells, 60 min, read-out: IC50 human FAP-α)?
A: 39.4 nM

Q: And the “activity remaining after 24 h of incubation relative to initial radioactivity” value (HT-1080-FAP cells [3]; 24 h incubation, FAPI-01 compared to binding after 10 min)?
A: 5%

Q: And the “proportion of total bound fraction located intracellularly” value (HT-1080-FAP cells [3]; [9])?
A: 95%

Q: What about the total bound fraction (HT-1080-FAP cells [3]; [9]) of the same compound?
A: 19.70±0.28%

Q: What about the “internalized proportion of total” value (HT-1080-FAP cells [3]; I-125 labeled, 4 h incubation) of the same compound?
A: 94%

Q: And the total bound fraction (HT-1080-FAP cells [3]; I-125 labeled, 4 h incubation)?
A: 17.00±0.40%

Q: And the radioactivity (HT-1080-FAP cells [3]; I-125 labeled, after 24 h, 4° C. (reduced deiodinase activity))?
A: 26.66±1.59%

Q: And the intracellular radioactivity (HT-1080-FAP cells [3]; I-125 labeled, after 24 h, 37° C.)?
A: 3.25±0.29%

Q: What about the “binding to FAP-negative cancer cell lines” value [4] of the same compound?
A: no significant binding

Q: And the “retained radioactivity (efflux)” value (HT-1080-FAP cells [5]; [10])?
A: 1.1 % ID

Q: What about the “retention of the originally accumulated radioactivity (efflux)” value (HT-1080-FAP cells [5]; [10]) of the same compound?
A: 1.1%

Q: For `N#C[C@@H]1CC(F)(F)CN1C(=O)CNC(=O)c1ccnc2ccc(OCCCN3CCN(C(=O)CN4CCN(CC(=O)O)CCN(CC(=O)O)CC4)CC3)cc12` [FAPI-42], which IC50-values (human FAP-α; Cu-64 labeled, HT-1080-FAP cells) is on record?
A: lower nanomolar range

Q: What about the “calculated in vitro-half-life (efflux)” value (HT-1080-FAP cells [5]; Cu-64 labeled) of the same compound?
A: 12 h

Q: With `CN(CCCC(=O)N1CCN(CCCOc2ccc3nccc(C(=O)CCCN4CCC[C@H]4C#N)c3c2)CC1)Cc1ccccc1-c1c2ccc(=N)cc-2oc2c(S(=O)(=O)O)c(N)ccc12` [FAPI-02-Atto488] as the compound, how does the “uptake in FAP-α negative HEK-CD26 cells” value (HEK-CD26 cells) read?
A: no uptake is detectable

Q: What about the “internalization into FAP-α expressing cells” value [6] of the same compound?
A: completely internalized

Q: For `N#C[C@@H]1CC(F)(F)CN1C(=O)CNC(=O)c1ccnc2ccc(OCCCN3CCN(C(=O)[C@H](CC(C(=O)O)C(=O)O)NC(=O)CN4CCN(CC(=O)O)CCN(CC(=O)O)CC4)CC3)cc12` [FAPI-75], which IC50 (human FAP-α; [8]) is on record?
A: 2.9 nM

Q: And the PET imaging findings [2]?
A: high target specificity and fast clearance

Q: What about the “tumor uptake in organ distribution” value [7] of the same compound?
A: high tumor uptake
